{"source": "paper PMC3830930", "about": "(Clinical pharmacology and therapeutics, 2011)", "key": {"[1]": {"system": "CYP3A4/5", "experiment": "clinical", "conditions": "human, in vivo"}, "[2]": {"system": "CYP3A4/5", "conditions": "for AUC1’-OH/AUC4-OH ratio: range over the three CYP3A5 genotype groups"}, "[3]": {"system": "UDP-glucuronosyltransferases (UGTs) in pooled HLMs", "experiment": "Glucuronidation of hydroxymidazolams in HLMs", "assay_type": "in vitro ADME, human"}, "[4]": {"molecular_target": "recombinant CYP3A4 (rCYP3A4) (Homo sapiens, UniProt P08684)", "sequence (P08684 2-503 limits assumed)": "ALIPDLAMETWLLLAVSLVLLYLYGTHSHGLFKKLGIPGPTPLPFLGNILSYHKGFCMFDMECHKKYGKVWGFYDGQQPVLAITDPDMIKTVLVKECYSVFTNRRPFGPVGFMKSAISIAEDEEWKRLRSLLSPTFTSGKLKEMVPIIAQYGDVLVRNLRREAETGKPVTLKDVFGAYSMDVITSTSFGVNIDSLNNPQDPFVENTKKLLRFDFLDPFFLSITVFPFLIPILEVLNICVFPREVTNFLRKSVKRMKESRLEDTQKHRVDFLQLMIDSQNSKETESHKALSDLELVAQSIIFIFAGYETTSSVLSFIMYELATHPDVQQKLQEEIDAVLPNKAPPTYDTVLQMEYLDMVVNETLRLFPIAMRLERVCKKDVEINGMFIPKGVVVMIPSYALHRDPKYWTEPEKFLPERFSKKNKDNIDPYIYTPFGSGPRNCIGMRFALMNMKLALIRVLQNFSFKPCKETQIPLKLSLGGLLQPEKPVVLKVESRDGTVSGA"}, "[5]": {"system": "plasma protein", "conditions": "cited from earlier work"}, "[6]": {"conditions": "cited from earlier work"}}, "note": "Read-outs that look alike come from different tables or passages of the source. Marks after values point to notes of the source that are not given here.", "data": [{"compound": "Cc1ncc2n1-c1ccc(Cl)cc1C(c1ccccc1F)=NC2", "note": "[midazolam, reference compound]", "values": [{"measurement": "AUC", "setting": "[1]; AUCMDZ", "result": 0.227, "unit": "µM·h"}, {"measurement": "AUC", "setting": "[1]; iv, 1 mg, AUCMDZ", "result": "0.16 ± 0.035", "unit": "µM·h"}, {"measurement": "percent of extrapolated AUC", "setting": "[2]; human, in vivo", "result": "13.0 ± 9.5", "unit": "%"}]}, {"compound": "Cc1ncc2n1-c1ccc(Cl)cc1C(c1ccccc1F)=NC2O", "note": "(centres unmarked) [4-hydroxymidazolam]", "values": [{"measurement": "AUC", "setting": "[1]; iv, 1 mg, AUC4-OH", "result": "0.0022 ± 0.0006", "unit": "µM·h"}, {"measurement": "percent of extrapolated AUC", "setting": "[2]; human, in vivo", "result": "19.0 ± 8.3", "unit": "%"}]}, {"compound": "hecogenin", "values": [{"measurement": "effect on glucuronide formation from 1’-OH-MDZ or 4-OH-MDZ", "setting": "[3]", "result": "decreased glucuronide formation significantly"}]}, {"compound": "OCc1ncc2n1-c1ccc(Cl)cc1C(c1ccccc1F)=NC2", "note": "[1’-hydroxymidazolam]", "values": [{"measurement": "AUC1’-OH/AUC4-OH ratio", "setting": "[2]; control state", "result": "6.3–9.6"}, {"measurement": "percent of extrapolated AUC", "setting": "[2]; extrapolation to infinity, mean ± S.D.", "result": "18.4 ± 10.6", "unit": "%"}, {"measurement": "AUC1’-OH/AUC4-OH ratio", "setting": "[2]; with fluconazole", "result": "2.9–4.9"}, {"measurement": "Ki of 1’-OH-MDZ formation (substrate inhibition)", "setting": "[4]", "result": "1480 ± 615 ^a µM"}]}, {"compound": "OC(Cn1cncn1)(Cn1cncn1)c1ccc(F)cc1F", "note": "[fluconazole]", "values": [{"measurement": "plasma protein binding", "setting": "[5]", "result": "11–12%"}, {"measurement": "effect on the glucuronidation of either hydroxymidazolam metabolite", "setting": "[3]; pooled HLMs, substrate 1 µM, even at 300 µM fluconazole", "result": "no effect"}, {"measurement": "elimination t1/2", "setting": "[6]", "result": "~ 32 hrs"}, {"measurement": "IC50 for 1’-OH-MDZ lower than that for 4-OH-MDZ", "setting": "[4]; human, pH 7.4", "result": 50, "unit": "%"}]}]}
